Experimental data from the supplement of paper PMC5908809.

Key:
[1] = test system: KAI3 (IL-2 2.5 ng/mL); test: percent inhibition of viability; higher = more inhibition; details: 72 h
[2] = test system: IMC-1 (IL-2 20 ng/mL); test: as above; details: 72 h
[3] = test system: NKL (IL-2 2.5 ng/mL); test: as above; details: 72 h
[4] = test system: DERL-7 (IL-2 2.5 ng/mL); test: as above; details: 72 h
[5] = test system: normal primary NK cells, pool 1 (3 donors), resting (IL-2 0 ng/mL); test: as above; details: 72 h
[6] = test system: NK-92 (IL-2 2.5 ng/mL); test: as above; details: 72 h
[7] = test system: NK-YS (IL-2 2.5 ng/mL); test: as above; details: 72 h
[8] = test system: KHYG-1 (IL-2 2.5 ng/mL); test: as above; details: 72 h
[9] = test system: SNK-6 (IL-2 2.5 ng/mL); test: as above; details: 72 h
[10] = test system: normal primary NK cells, pool 3 (3 donors) (IL-2 2.5 ng/mL); test: as above; details: 72 h
[11] = test system: YT (IL-2 2.5 ng/mL); test: as above; details: 72 h
[12] = test system: normal primary NK cells, pool 2 (3 donors) (IL-2 2.5 ng/mL); test: as above; details: 72 h
[13] = test system: normal primary NK cells, pool 1 (3 donors) (IL-2 2.5 ng/mL); test: as above; details: 72 h
[14] = test system: KAI3 (IL-2 2.5 ng/mL); test: drug sensitivity score (DSS) (DSS units); higher = more sensitive; extreme values may be limits of the assay; details: 72 h
[15] = test system: IMC-1 (IL-2 20 ng/mL); test: as above; details: 72 h
[16] = test system: NKL (IL-2 2.5 ng/mL); test: as above; details: 72 h
[17] = test system: DERL-7 (IL-2 2.5 ng/mL); test: as above; details: 72 h
[18] = test system: normal primary NK cells, pool 1 (3 donors), resting (IL-2 0 ng/mL); test: as above; details: 72 h
[19] = test system: NK-92 (IL-2 2.5 ng/mL); test: as above; details: 72 h
[20] = test system: NK-YS (IL-2 2.5 ng/mL); test: as above; details: 72 h
[21] = test system: KHYG-1 (IL-2 2.5 ng/mL); test: as above; details: 72 h
[22] = test system: SNK-6 (IL-2 2.5 ng/mL); test: as above; details: 72 h
[23] = test system: normal primary NK cells, pool 3 (3 donors) (IL-2 2.5 ng/mL); test: as above; details: 72 h
[24] = test system: YT (IL-2 2.5 ng/mL); test: as above; details: 72 h
[25] = test system: normal primary NK cells, pool 2 (3 donors) (IL-2 2.5 ng/mL); test: as above; details: 72 h
[26] = test system: normal primary NK cells, pool 1 (3 donors) (IL-2 2.5 ng/mL); test: as above; details: 72 h
[27] = test system: normal NK cells expanded with K562-aAPC; test: percent inhibition of viability; higher = more inhibition; details: 72 h, IL-2 2.5 ng/mL
Method: (§1)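 Drug sensitivity and resistance testing on K562-aAPC-expanded normal NK cells: 5 concentrations (10-fold steps over a 10,000-fold range), 72 h at 37 °C, viability by CellTiter-Glo normalised to DMSO and benzethonium chloride controls; DSS from the fitted curve.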

[28] = test system: normal NK cells expanded with K562-aAPC; test: drug sensitivity score (DSS) (DSS units); higher = more sensitive; extreme values may be limits of the assay; details: 72 h; IL-2 2.5 ng/mL
Method: as §1

c1ccc([C@H]2CN3CCSC3=N2)cc1 [Levamisole] (max concentration tested 10000 nM)
percent inhibition of viability [%]
Details	1 nM	10 nM	100 nM	1000 nM	10000 nM
[1]	-7.01	-9.23	-10.5	-11.1	-14.3
[2]	0.36	-1.13	-6.73	-2.24	-6.39
[3]	-11.2	0.14	-6.49	-4.45	-10.6
[4]	-5.12	0.58	-3.2	-6.8	-8.1
[5]	-4.85	-2.06	13.8	4.07	3.16
[6]	-11.8	-18.9	-18.4	-24.3	-19.2
[7]	-2.25	-3.37	-7.18	-2.36	-6.1
[8]	-4.84	-2.9	-4.9	-1.62	-2.11
[9]	3.65	13.1	-14.1	-5.97	-47.5
[10]	-8.31	-11.3	-9.28	-4.76	-5.98
[11]	-3.76	-6.23	-5.31	-5.18	-4.44
[12]	-4.91	-0.55	-10.1	-7.03	-10.1
[13]	-7.56	-2.22	4.92	-0.77	2.81
[27]	-4.29	-11	-5.79	-6.94	-11

Details	drug sensitivity score
[14]	0
[15]	0
[16]	0
[17]	0
[18]	0
[19]	0
[20]	0
[21]	0
[22]	0
[23]	0
[24]	0
[25]	0
[26]	0
[28]	0

O=NN(CCCl)C(=O)NC1CCCCC1 [Lomustine] (max concentration tested 10000 nM)
percent inhibition of viability [%]
Details	1 nM	10 nM	100 nM	1000 nM	10000 nM
[1]	-9.82	0.25	-6.64	-4.27	-3.54
[2]	-5.94	-3.37	-4.39	-5.66	-4.09
[3]	-15	-16.4	-19.5	-23.3	-24.5
[4]	-0.56	-0.17	-2.85	-3.2	-5.37
[5]	-9.1	-11.4	-22.4	13.4	3.51
[6]	-9.96	-19	-9.06	-13.7	-15.8
[7]	-6.33	-2.26	-1.76	0.49	4.09
[8]	-7.65	-1.52	-3.58	-1.68	0.4
[9]	10.8	20.4	-2.23	6.58	-11
[10]	-11.8	-8.98	-8.45	-6.32	-4.26
[11]	-3.7	-2.05	-4.42	-2.81	0.06
[12]	-12.4	-5.7	-9.1	-11.4	-2.45
[13]	-1.98	-5.39	-3.98	-5.42	-0.06
[27]	-0.77	-4.05	-3.71	-4.93	-6.08

Details	drug sensitivity score
[14]	0
[15]	0
[16]	0
[17]	0
[18]	0
[19]	0
[20]	0
[21]	0
[22]	0
[23]	0
[24]	0
[25]	0
[26]	0
[28]	0

CCNC(=O)c1noc(-c2cc(C(C)C)c(O)cc2O)c1-c1ccc(CN2CCOCC2)cc1 [Luminespib] (max concentration tested 1000 nM)
percent inhibition of viability [%]
Details	0.1 nM	1 nM	10 nM	100 nM	1000 nM
[1]	1.34	8.03	88.8	100	97.7
[2]	-0.63	-3.7	51.6	99.6	99.7
[3]	-1.62	-1.66	87.8	86.7	85.5
[4]	2.4	1.89	99.7	100	100
[5]	-4.56	-1.24	21.2	46.8	48.1
[6]	-9.62	-1.81	66.9	97.9	95
[7]	-0.03	4.35	89.3	98.7	97.7
[8]	-1.01	1.79	47.7	102	99.4
[9]	-5.65	9.52	35.8	85.2	87.3
[10]	-20	-6.55	68.1	75.4	77.5
[11]	-1.24	-3.01	7.32	89.6	92.1
[12]	-11.3	0.74	74.2	74.9	76
[13]	-3.81	5.41	76.8	82.5	86.2
[27]	-2.12	-2.95	97.5	97.4	97.4

Details	drug sensitivity score
[14]	29.8
[15]	24.3
[16]	26.9
[17]	30.7
[18]	11.5
[19]	25.4
[20]	29.1
[21]	24
[22]	19.6
[23]	22.2
[24]	17.6
[25]	23.5
[26]	25.7
[28]	29.5
